Data reported in patent publication US8134007B2, “Pyridine derivatives” (Pfizer Inc., priority 2007, dated 2012).

What was measured:
Format in all cases: cell-based
Human Nav1.8 = target: T1, Human Nav1.8 (Homo sapiens, UniProt Q9Y5Y9); assay: VIPR Assay for Nav1.8 Compounds (FRET membrane potential, deltamethrin opener); conditions: VIPR FRET membrane potential assay, deltamethrin opener; average of replicates; read-out: Nav1.8 IC50
T1 construct: expressed in transfected cells; host or cells: HEK293

[1] = test system: tetrodotoxin-sensitive voltage-gated sodium channels including NaV1.2, NaV1.3 and NaV1.7; assay: TTX-S Assay (VIPR, SHSY-5Y cell line, veratridine opener); conditions: read-out: TTX-S IC50, veratridine 50 μM opener, average of replicates
Human Nav1.5 = target: T2, Human Nav1.5 (Homo sapiens, UniProt Q14524); assay: Nav1.5 Assay (VIPR, HEK293 cells); conditions: HEK293 cells expressing Human Nav1.5; average of replicates; read-out: Nav1.5 IC50
T2 construct: expressed in transfected cells; host or cells: HEK293
Method: The Nav1.5 assay is performed in HEK293 cells expressing Human Nav1.5 in the same way as the Nav1.8 assay.
Where replicate experiments were conducted resulting in multiple sets of data for a test compound, the data presented represent the average value from all replicate experiments.

T2 sequence (Q14524 whole entry): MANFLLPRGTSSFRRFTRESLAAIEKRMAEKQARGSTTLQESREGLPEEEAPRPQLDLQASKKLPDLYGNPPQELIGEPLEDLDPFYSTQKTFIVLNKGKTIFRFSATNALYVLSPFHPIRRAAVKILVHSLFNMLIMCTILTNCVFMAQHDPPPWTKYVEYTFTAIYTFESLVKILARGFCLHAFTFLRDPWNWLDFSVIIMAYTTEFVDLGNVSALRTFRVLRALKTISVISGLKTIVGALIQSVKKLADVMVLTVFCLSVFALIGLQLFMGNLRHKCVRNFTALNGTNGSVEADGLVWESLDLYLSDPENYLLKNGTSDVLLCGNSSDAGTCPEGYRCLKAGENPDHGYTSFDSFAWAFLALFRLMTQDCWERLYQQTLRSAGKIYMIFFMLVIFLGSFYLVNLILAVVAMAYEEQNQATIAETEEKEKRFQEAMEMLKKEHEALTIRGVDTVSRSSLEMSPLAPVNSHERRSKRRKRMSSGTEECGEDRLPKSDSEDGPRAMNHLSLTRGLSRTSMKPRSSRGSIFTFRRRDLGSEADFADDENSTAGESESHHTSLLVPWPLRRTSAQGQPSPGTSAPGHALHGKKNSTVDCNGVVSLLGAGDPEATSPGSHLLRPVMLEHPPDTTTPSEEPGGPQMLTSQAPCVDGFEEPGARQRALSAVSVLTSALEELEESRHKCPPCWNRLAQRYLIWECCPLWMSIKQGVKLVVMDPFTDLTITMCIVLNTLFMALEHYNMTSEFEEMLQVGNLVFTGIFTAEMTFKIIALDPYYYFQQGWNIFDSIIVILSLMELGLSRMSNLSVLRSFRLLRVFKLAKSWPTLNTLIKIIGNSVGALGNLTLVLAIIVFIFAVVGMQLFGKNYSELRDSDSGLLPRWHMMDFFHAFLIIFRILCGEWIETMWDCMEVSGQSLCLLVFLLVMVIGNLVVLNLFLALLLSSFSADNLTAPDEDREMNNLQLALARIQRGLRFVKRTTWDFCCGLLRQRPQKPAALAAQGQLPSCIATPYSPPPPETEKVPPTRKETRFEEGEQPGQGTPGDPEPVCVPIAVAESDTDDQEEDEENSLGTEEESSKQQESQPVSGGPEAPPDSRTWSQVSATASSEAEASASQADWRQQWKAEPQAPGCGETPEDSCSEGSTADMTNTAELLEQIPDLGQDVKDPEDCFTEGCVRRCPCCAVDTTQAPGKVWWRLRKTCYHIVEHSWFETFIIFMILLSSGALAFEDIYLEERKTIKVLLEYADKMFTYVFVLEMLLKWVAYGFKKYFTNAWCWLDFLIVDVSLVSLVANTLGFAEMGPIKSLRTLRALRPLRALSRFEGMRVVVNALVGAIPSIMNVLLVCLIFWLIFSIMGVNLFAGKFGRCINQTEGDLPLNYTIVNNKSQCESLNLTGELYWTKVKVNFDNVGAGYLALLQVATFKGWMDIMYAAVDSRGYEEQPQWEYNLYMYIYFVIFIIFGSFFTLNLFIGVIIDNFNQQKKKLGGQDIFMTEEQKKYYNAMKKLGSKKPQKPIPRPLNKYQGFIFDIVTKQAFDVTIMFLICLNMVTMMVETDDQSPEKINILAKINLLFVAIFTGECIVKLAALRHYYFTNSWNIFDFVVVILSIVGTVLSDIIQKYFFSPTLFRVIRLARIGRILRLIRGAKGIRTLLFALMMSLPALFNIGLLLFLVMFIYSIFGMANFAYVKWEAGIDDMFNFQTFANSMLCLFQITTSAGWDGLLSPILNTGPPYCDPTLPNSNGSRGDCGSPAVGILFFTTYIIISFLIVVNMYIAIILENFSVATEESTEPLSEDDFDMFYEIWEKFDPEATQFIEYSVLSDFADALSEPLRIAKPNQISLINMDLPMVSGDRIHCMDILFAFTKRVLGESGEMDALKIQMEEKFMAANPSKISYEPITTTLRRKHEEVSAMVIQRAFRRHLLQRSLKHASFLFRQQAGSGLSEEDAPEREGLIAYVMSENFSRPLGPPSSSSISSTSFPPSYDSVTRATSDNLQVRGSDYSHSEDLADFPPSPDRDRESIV
T1 sequence (Q9Y5Y9 whole entry): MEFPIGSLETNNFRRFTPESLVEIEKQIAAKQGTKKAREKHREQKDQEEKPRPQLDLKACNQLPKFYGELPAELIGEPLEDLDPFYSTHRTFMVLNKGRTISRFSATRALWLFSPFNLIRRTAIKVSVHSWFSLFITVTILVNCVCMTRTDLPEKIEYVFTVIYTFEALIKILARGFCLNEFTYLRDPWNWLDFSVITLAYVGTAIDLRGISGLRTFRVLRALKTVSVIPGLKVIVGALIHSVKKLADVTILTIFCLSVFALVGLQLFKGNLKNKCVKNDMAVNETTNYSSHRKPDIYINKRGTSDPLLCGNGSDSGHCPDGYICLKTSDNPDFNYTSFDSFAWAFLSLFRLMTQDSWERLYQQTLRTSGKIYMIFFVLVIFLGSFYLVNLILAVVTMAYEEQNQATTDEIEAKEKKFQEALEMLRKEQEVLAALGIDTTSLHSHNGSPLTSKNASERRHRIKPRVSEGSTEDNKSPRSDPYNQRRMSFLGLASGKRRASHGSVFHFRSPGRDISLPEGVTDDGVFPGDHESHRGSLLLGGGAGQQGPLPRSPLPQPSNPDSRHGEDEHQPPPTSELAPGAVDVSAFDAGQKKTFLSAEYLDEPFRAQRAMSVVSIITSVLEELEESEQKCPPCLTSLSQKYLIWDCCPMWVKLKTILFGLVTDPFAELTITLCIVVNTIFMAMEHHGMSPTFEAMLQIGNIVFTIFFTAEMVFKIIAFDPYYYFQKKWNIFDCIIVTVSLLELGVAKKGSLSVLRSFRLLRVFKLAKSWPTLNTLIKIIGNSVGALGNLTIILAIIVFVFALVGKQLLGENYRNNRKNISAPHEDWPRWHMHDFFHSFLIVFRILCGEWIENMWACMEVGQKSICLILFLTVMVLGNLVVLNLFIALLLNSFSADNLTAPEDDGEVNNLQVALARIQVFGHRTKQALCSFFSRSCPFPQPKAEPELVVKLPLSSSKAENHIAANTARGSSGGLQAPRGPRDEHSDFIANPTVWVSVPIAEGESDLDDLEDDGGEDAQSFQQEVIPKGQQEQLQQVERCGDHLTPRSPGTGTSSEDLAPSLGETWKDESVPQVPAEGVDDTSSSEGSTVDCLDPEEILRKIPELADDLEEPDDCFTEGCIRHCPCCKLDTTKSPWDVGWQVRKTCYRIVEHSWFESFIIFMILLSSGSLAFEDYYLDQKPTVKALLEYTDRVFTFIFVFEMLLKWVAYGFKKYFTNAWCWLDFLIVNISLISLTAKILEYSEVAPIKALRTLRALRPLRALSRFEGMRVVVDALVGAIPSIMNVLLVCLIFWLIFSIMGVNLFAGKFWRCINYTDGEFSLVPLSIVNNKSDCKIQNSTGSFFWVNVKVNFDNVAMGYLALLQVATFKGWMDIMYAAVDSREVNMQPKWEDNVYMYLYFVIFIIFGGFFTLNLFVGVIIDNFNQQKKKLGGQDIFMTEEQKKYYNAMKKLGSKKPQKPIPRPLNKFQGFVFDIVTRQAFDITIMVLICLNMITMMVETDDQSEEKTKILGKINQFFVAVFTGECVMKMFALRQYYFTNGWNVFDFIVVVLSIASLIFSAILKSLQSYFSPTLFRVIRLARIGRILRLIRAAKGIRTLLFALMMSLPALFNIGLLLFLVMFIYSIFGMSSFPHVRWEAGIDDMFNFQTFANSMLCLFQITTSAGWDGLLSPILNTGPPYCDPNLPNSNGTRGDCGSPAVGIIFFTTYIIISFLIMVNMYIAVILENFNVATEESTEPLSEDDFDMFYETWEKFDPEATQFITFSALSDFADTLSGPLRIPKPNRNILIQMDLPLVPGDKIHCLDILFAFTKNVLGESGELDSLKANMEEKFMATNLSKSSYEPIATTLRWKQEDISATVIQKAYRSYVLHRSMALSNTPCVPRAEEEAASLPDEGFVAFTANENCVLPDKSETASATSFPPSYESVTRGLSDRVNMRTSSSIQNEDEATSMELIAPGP

COCc1nocc1C(=O)Nc1ccc(-c2ccccc2Cl)c(N)n1 [Example 89, N-[6-Amino-5-(2-chlorophenyl)pyridin-2-yl]-3-(methoxymethyl)isoxazole-4-carboxamide]
IC50 (Human Nav1.8): 4.4 µM | IC50 [1]: > 32 µM | IC50 (Human Nav1.5): > 32 µM

COCc1nocc1C(=O)Nc1ccc(-c2ccccc2OC(F)(F)F)c(N)n1 [Example 88, N-{6-Amino-5-[2-(trifluoromethoxy)phenyl]pyridin-2-yl}-3-(methoxymethyl)isoxazole-4-carboxamide]
IC50 (Human Nav1.8): 1.5 µM | IC50 [1]: 7.3 µM | IC50 (Human Nav1.5): 9.8 µM

COc1ccc(Cl)c(-c2ccc(NC(=O)c3ccon3)nc2N)c1 [Example 73, N-[6-Amino-5-(2-chloro-5-methoxyphenyl)pyridin-2-yl]isoxazole-3-carboxamide]
IC50 (Human Nav1.8): 4.7 µM | IC50 [1]: 18 µM | IC50 (Human Nav1.5): > 32 µM

Nc1nc(NC(=O)c2conc2C(F)(F)F)ccc1-c1ccccc1Cl [Example 111]
IC50 (Human Nav1.8): 0.51 µM | IC50 [1]: 6.1 µM | IC50 (Human Nav1.5): 16 µM

CCn1nccc1C(=O)Nc1ccc(-c2cc(OC(F)(F)F)ccc2F)c(N)n1 [Example 64, N-{6-Amino-5-[2-fluoro-5-(trifluoromethoxy)phenyl]pyridin-2-yl}-1-ethyl-1H-pyrazole-5-carboxamide]
IC50 (Human Nav1.8): 5 µM | IC50 [1]: 3.7 µM | IC50 (Human Nav1.5): 14 µM

Cn1nncc1C(=O)Nc1ccc(-c2cc(Cl)cc(Cl)c2Cl)c(N)n1 [Example 84, N-[6-Amino-5-(2,3,5-trichlorophenyl)pyridin-2-yl]-1-methyl-1H-1,2,3-triazole-5-carboxamide]
IC50 (Human Nav1.8): 2.4 µM | IC50 [1]: 6.5 µM | IC50 (Human Nav1.5): 5.3 µM

CCn1nccc1C(=O)Nc1ccc(-c2cc(Cl)cc(OC)c2Cl)c(N)n1 [Example 62, N-[6-Amino-5-(2,5-dichloro-3-methoxyphenyl)pyridin-2-yl]-1-ethyl-1H-pyrazole-5-carboxamide]
IC50 (Human Nav1.8): 5.1 µM | IC50 [1]: 11 µM | IC50 (Human Nav1.5): 17 µM

COc1cc(Cl)cc(-c2ccc(NC(=O)c3conc3C)nc2N)c1Cl [Example 27, N-[6-Amino-5-(2,5-dichloro-3-methoxyphenyl)pyridin-2-yl]-3-methylisoxazole-4-carboxamide]
IC50 (Human Nav1.8): 0.37 µM | IC50 [1]: 3.2 µM | IC50 (Human Nav1.5): 10 µM

Cc1nocc1C(=O)Nc1ccc(-c2cc(F)ccc2Cl)c(N)n1 [Example 41, N-[6-Amino-5-(2-chloro-5-fluorophenyl)pyridin-2-yl]-3-methylisoxazole-4-carboxamide]
IC50 (Human Nav1.8): 0.25 µM | IC50 [1]: 11 µM | IC50 (Human Nav1.5): 12 µM

COCc1oncc1C(=O)Nc1ccc(-c2ccccc2Cl)c(N)n1 [Example 91]
IC50 (Human Nav1.8): 2.6 µM | IC50 [1]: > 32 µM | IC50 (Human Nav1.5): > 32 µM

Nc1nc(NC(=O)c2conc2C(F)(F)F)ccc1-c1cc(F)ccc1Cl [Example 114]
IC50 (Human Nav1.8): 0.31 µM | IC50 [1]: 4 µM | IC50 (Human Nav1.5): 4.1 µM

COc1ccc(Cl)c(-c2ccc(NC(=O)c3conc3C(F)(F)F)nc2N)c1 [Example 113]
IC50 (Human Nav1.8): 3.8 µM | IC50 [1]: 8.7 µM | IC50 (Human Nav1.5): 14 µM

Nc1nc(NC(=O)c2ccno2)ccc1-c1cc(Cl)cc(Cl)c1Cl [Example 78, N-[6-Amino-5-(2,3,5-trichlorophenyl)pyridin-2-yl]isoxazole-5-carboxamide]
IC50 (Human Nav1.8): 1.4 µM | IC50 [1]: 8.3 µM | IC50 (Human Nav1.5): 14 µM

Cc1nocc1C(=O)Nc1ccc(-c2ccccc2C(F)(F)F)c(N)n1 [Example 2, N-{6-Amino-5-[2-(trifluoromethyl)phenyl]pyridin-2-yl}-3-methylisoxazole-4-carboxamide]
IC50 (Human Nav1.8): 1.7 µM | IC50 [1]: 30 µM | IC50 (Human Nav1.5): > 32 µM

Cc1nocc1C(=O)Nc1ccc(-c2cc(Cl)ccc2OC(F)(F)F)c(N)n1 [Example 32, N-{6-Amino-5-[5-chloro-2-(trifluoromethoxy)phenyl]pyridin-2-yl}-3-methylisoxazole-4-carboxamide]
IC50 (Human Nav1.8): 0.64 µM | IC50 [1]: 2.6 µM | IC50 (Human Nav1.5): 7.8 µM

Cc1nocc1C(=O)Nc1ccc(-c2cccc(C(F)(F)F)c2Cl)c(N)n1 [Example 124]
IC50 (Human Nav1.8): 11 µM | IC50 [1]: 8.6 µM | IC50 (Human Nav1.5): 12 µM

COc1cc(Cl)cc(-c2ccc(NC(=O)c3cnnn3C)nc2N)c1Cl [Example 87, N-[6-Amino-5-(2,5-dichloro-3-methoxyphenyl)pyridin-2-yl]-1-methyl-1H-1,2,3-triazole-5-carboxamide]
IC50 (Human Nav1.8): 6.1 µM | IC50 [1]: 15 µM | IC50 (Human Nav1.5): 9.9 µM

Cn1nccc1C(=O)Nc1ccc(-c2cc(F)ccc2Cl)c(N)n1 [Example 6, N-[6-Amino-5-(2-chloro-5-fluorophenyl)pyridin-2-yl]-1-methyl-1H-pyrazole-5-carboxamide]
IC50 (Human Nav1.8): 1.1 µM | IC50 [1]: 23 µM | IC50 (Human Nav1.5): 13 µM

Cc1nocc1C(=O)Nc1ccc(-c2cc(OC(F)(F)F)ccc2Cl)c(N)n1 [Example 37, N-{6-Amino-5-[2-chloro-5-(trifluoromethoxy)phenyl]pyridin-2-yl}-3-methylisoxazole-4-carboxamide]
IC50 (Human Nav1.8): 0.44 µM | IC50 [1]: 1.2 µM | IC50 (Human Nav1.5): 3.6 µM

COCc1cc(C(=O)Nc2ccc(-c3ccccc3OC(F)(F)F)c(N)n2)on1 [Example 94]
IC50 (Human Nav1.8): > 32 µM | IC50 [1]: 19 µM | IC50 (Human Nav1.5): 31 µM

CCn1nccc1C(=O)Nc1ccc(-c2ccccc2Cl)c(N)n1 [Example 53, N-[6-Amino-5-(2-chlorophenyl)pyridin-2-yl]-1-ethyl-1H-pyrazole-5-carboxamide]
IC50 (Human Nav1.8): 2.3 µM | IC50 [1]: 15 µM | IC50 (Human Nav1.5): 22 µM

Cn1nccc1C(=O)Nc1ccc(-c2ccccc2C(F)(F)F)c(N)n1 [Example 14, N-{6-Amino-5-[2-(trifluoromethyl)phenyl]pyridin-2-yl}-1-methyl-1H-pyrazole-5-carboxamide]
IC50 (Human Nav1.8): 8.4 µM | IC50 [1]: > 32 µM | IC50 (Human Nav1.5): > 32 µM

COc1cc(Cl)c(Cl)c(-c2ccc(NC(=O)c3conc3C)nc2N)c1 [Example 29, N-[6-Amino-5-(2,3-dichloro-5-methoxyphenyl)pyridin-2-yl]-3-methylisoxazole-4-carboxamide]
IC50 (Human Nav1.8): 0.55 µM | IC50 [1]: 8.2 µM | IC50 (Human Nav1.5): 6.4 µM

Cc1nonc1C(=O)Nc1ccc(-c2cc(F)ccc2Cl)c(N)n1 [Example 47, N-[6-Amino-5-(2-chloro-5-fluorophenyl)pyridin-2-yl]-4-methyl-1,2,5-oxadiazole-3-carboxamide]
IC50 (Human Nav1.8): 1.4 µM | IC50 [1]: 6.1 µM | IC50 (Human Nav1.5): 7.4 µM

COc1ccc(Cl)c(-c2ccc(NC(=O)c3ccnn3C)nc2N)c1 [Example 5, N-[6-Amino-5-(2-chloro-5-methoxyphenyl)pyridin-2-yl]-1-methyl-1H-pyrazole-5-carboxamide]
IC50 (Human Nav1.8): 0.9 µM | IC50 [1]: > 32 µM | IC50 (Human Nav1.5): > 32 µM

Cn1nccc1C(=O)Nc1ccc(-c2ccccc2OCC(F)(F)F)c(N)n1 [Example 119]
IC50 (Human Nav1.8): 2 µM | IC50 [1]: 26 µM | IC50 (Human Nav1.5): 31 µM

Cn1nccc1C(=O)Nc1ccc(-c2ccc(OCC(F)(F)F)cc2)c(N)n1 [Example 122]
IC50 (Human Nav1.8): 19 µM | IC50 [1]: 12 µM | IC50 (Human Nav1.5): 14 µM

Nc1nc(NC(=O)c2conc2C(F)(F)F)ccc1-c1ccccc1OC(F)(F)F [Example 112]
IC50 (Human Nav1.8): 0.94 µM | IC50 [1]: 4.5 µM | IC50 (Human Nav1.5): 7.7 µM

Cc1nocc1C(=O)Nc1ccc(-c2cc(OC(F)(F)F)ccc2F)c(N)n1 [Example 36, N-{6-Amino-5-[2-fluoro-5-(trifluoromethoxy)phenyl]pyridin-2-yl}-3-methylisoxazole-4-carboxamide]
IC50 (Human Nav1.8): 1.3 µM | IC50 [1]: 2.2 µM | IC50 (Human Nav1.5): 6.4 µM

Nc1nc(NC(=O)c2ccccc2)ccc1-c1ccccc1OC(F)(F)F [Example 99]
IC50 (Human Nav1.8): 3.2 µM | IC50 [1]: 6.6 µM | IC50 (Human Nav1.5): 15 µM

Cn1nccc1C(=O)Nc1ccc(-c2ccccc2OC(F)F)c(N)n1 [Example 19, N-{6-Amino-5-[2-(difluoromethoxy)phenyl]pyridin-2-yl}-1-methyl-1H-pyrazole-5-carboxamide]
IC50 (Human Nav1.8): 14 µM | IC50 [1]: 25 µM | IC50 (Human Nav1.5): > 32 µM

CCn1nccc1C(=O)Nc1ccc(-c2cccc(F)c2Cl)c(N)n1 [Example 58, N-[6-Amino-5-(2-chloro-3-fluorophenyl)pyridin-2-yl]-1-ethyl-1H-pyrazole-5-carboxamide]
IC50 (Human Nav1.8): 9.3 µM | IC50 [1]: 17 µM | IC50 (Human Nav1.5): 31 µM

COc1cc(Cl)cc(-c2ccc(NC(=O)c3ccnn3C)nc2N)c1Cl [Example 8, N-[6-Amino-5-(2,5-dichloro-3-methoxyphenyl)pyridin-2-yl]-1-methyl-1H-pyrazole-5-carboxamide]
IC50 (Human Nav1.8): 1.6 µM | IC50 [1]: 7.6 µM | IC50 (Human Nav1.5): 20 µM

Cn1nccc1C(=O)Nc1ccc(-c2ccc(Cl)cc2Cl)c(N)n1 [Example 15, N-[6-Amino-5-(2,4-dichlorophenyl)pyridin-2-yl]-1-methyl-1H-pyrazole-5-carboxamide]
IC50 (Human Nav1.8): 10 µM | IC50 [1]: 21 µM | IC50 (Human Nav1.5): 13 µM

CCn1nccc1C(=O)Nc1ccc(-c2cc(F)ccc2C(F)(F)F)c(N)n1 [Example 57, N-{6-Amino-5-[5-fluoro-2-(trifluoromethyl)phenyl]pyridin-2-yl}-1-ethyl-1H-pyrazole-5-carboxamide]
IC50 (Human Nav1.8): 3.7 µM | IC50 [1]: 21 µM | IC50 (Human Nav1.5): > 32 µM

Cn1nncc1C(=O)Nc1ccc(-c2ccccc2Cl)c(N)n1 [Example 82, N-[6-Amino-5-(2-chlorophenyl)pyridin-2-yl]-1-methyl-1H-1,2,3-triazole-5-carboxamide]
IC50 (Human Nav1.8): 9.3 µM | IC50 [1]: > 32 µM | IC50 (Human Nav1.5): > 32 µM

CC(C)n1nccc1C(=O)Nc1ccc(-c2ccccc2OC(F)(F)F)c(N)n1 [Example 68, N-{6-Amino-5-[2-(trifluoromethoxy)phenyl]pyridin-2-yl}-1-isopropyl-1H-pyrazole-5-carboxamide]
IC50 (Human Nav1.8): 3.9 µM | IC50 [1]: 5 µM | IC50 (Human Nav1.5): 17 µM
